Experimental data as given in article PMC11397024, “Strategic Fluorination to Achieve a Potent, Selective, Metabolically Stable, and Orally Bioavailable Inhibitor of CSNK2” (Molecules, 2024).

Assays:
Assay in all cases: NanoBRET K192
Format in all cases: cell-based
AURKC = molecular target: T1, AURKC (Homo sapiens, UniProt Q9UQB9); settings: HEK293
T1 construct: purchased Promega (NanoBRET Target Engagement K192 Kinase Selectivity System)
Method: (§1) The K192 selectivity assay was run according to the Draft Promega technical manual, NanoBRET^TM Target Engagement K192 Kinase Selectivity System. Reagents were supplied by Promega (Promega NP 4101). For the assay, DNA from the prepared kinase vector panel plates A and B were mixed with Fugene in 96-well plates (Corning 3917) and incubated at room temperature for 30 min. The NanoLuc® Low control vector pNL1.1.CMV [Nluc/CMV] Vector (Cat.# N1091) and the transfection control vector NanoLuc®-HIPK2 Fusion Vector (Cat.# NV3221) were used as controls.
(§2) HEK293 cells were grown to 75–95% confluency in DMEM (Gibco 11995-065) supplemented with FBS (Avantor 97068-085) at 37 °C in […]. On the first day of the assay, cells were harvested and resuspended in Opti-MEM (Gibco 11058-021) supplemented with 1% FBS (Avantor 97068-085) at 2.5 × 10^5 cells per mL. A volume of 60 μL of cell suspension was mixed with 10 μL of prepared DNA (10X concentration) and 30 μL of Fugene (30 μL/mL in Opti-MEM) as outlined by Promega and incubated overnight at 37 °C in a 5% CO2 incubator.
(§3) On day two of the assay, 5 μL of 20X K10 tracer was prepared and added at concentrations recommended by Promega. Then, 10 μL of test compounds at 100 μM in Opti-MEM (diluted from a 10 mM solution in DMSO) was added to the test wells while an equivalent volume of Opti-MEM was added to the high-control wells. Plates were kept at 37 °C in a 5% CO2 incubator for two hours. After two hours, plates were allowed to equilibrate to room temperature for 15 min. A solution of 3X Complete Substrate plus Inhibitor Solution was freshly prepared, consisting of a 1:166 dilution of NanoBRET™ Nano-Glo® Substrate plus a 1:500 dilution of Extracellular NanoLuc® Inhibitor in Opti-MEM® medium without serum or phenol red. A 50 μL volume of the 3X Complete Substrate plus Inhibitor Solution was added to each assay well, including control wells. After 2–3 min, the plate was shaken at 300 RPM for 10 s, and the donor emission wavelength (450 nm) and acceptor emission wavelength (610 nm) were measured using the Glomax® Discover System.
(§4) As a quality check, the donor signal-to-background ratio was calculated for each individual kinase by dividing the mean donor signal for each kinase by the mean donor signal for the signal-to-background control wells. Fractional occupancy of the test drug for each kinase was determined using the following formula:Occupancy (%) = [1 − (Sample − Bottom)/(Top − Bottom)] × 100 where

CAMK2A = molecular target: T2, CAMK2A (Homo sapiens, UniProt Q9UQM7); settings: HEK293
T2 construct: purchased Promega (NanoBRET Target Engagement K192 Kinase Selectivity System)
Method: as §1, §2, §3, §4

CDK10 + L2 = molecular target: T3, CDK10 + L2 (Homo sapiens, UniProt Q15131); settings: HEK293
T3 construct: purchased Promega (NanoBRET Target Engagement K192 Kinase Selectivity System)
Method: as §1, §2, §3, §4

CDK6 + D1 = molecular target: T4, CDK6 + D1 (Homo sapiens, UniProt Q00534); settings: HEK293
T4 construct: purchased Promega (NanoBRET Target Engagement K192 Kinase Selectivity System)
Method: as §1, §2, §3, §4

CDKL1 = molecular target: T5, CDKL1 (Homo sapiens, UniProt Q00532); settings: HEK293
T5 construct: purchased Promega (NanoBRET Target Engagement K192 Kinase Selectivity System)
Method: as §1, §2, §3, §4

CSNK2A2 = molecular target: T6, CSNK2A2 (Homo sapiens, UniProt P19784)
T6 construct: expressed in transfected cells; host or cells: HEK293
Method: as §1, §2, §3, §4

DCLK3 = molecular target: T7, DCLK3 (Homo sapiens, UniProt Q9C098); settings: HEK293
T7 construct: purchased Promega (NanoBRET Target Engagement K192 Kinase Selectivity System)
Method: as §1, §2, §3, §4

EPHA4 = molecular target: T8, EPHA4 (Homo sapiens, UniProt P54764); settings: HEK293
T8 construct: purchased Promega (NanoBRET Target Engagement K192 Kinase Selectivity System)
Method: as §1, §2, §3, §4

FLT3 = molecular target: T9, FLT3 (Homo sapiens, UniProt P36888); settings: HEK293
T9 construct: host or cells: HEK293
Method: as §1, §2, §3, §4

FYN = molecular target: T10, FYN (Homo sapiens, UniProt P06241); settings: HEK293
T10 construct: purchased Promega (NanoBRET Target Engagement K192 Kinase Selectivity System)
Method: as §1, §2, §3, §4

HIPK4 = molecular target: T11, HIPK4 (Homo sapiens, UniProt Q8NE63); settings: HEK293
T11 construct: purchased Promega (NanoBRET Target Engagement K192 Kinase Selectivity System)
Method: as §1, §2, §3, §4

IGF1R = molecular target: T12, IGF1R (Homo sapiens, UniProt P08069); settings: HEK293
T12 construct: host or cells: HEK293
Method: as §1, §2, §3, §4

ITK = molecular target: T13, ITK (Homo sapiens, UniProt Q08881); settings: HEK293
T13 construct: purchased Promega (NanoBRET Target Engagement K192 Kinase Selectivity System)
Method: as §1, §2, §3, §4

MAP3K4 = molecular target: T14, MAP3K4 (Homo sapiens, UniProt Q9Y6R4); settings: HEK293
T14 construct: purchased Promega (NanoBRET Target Engagement K192 Kinase Selectivity System)
Method: as §1, §2, §3, §4

MAPK14 = molecular target: T15, MAPK14 (Homo sapiens, UniProt Q16539); settings: HEK293
T15 construct: purchased Promega (NanoBRET Target Engagement K192 Kinase Selectivity System)
Method: as §1, §2, §3, §4

MET = molecular target: T16, MET (Homo sapiens, UniProt P08581); settings: HEK293
T16 construct: purchased Promega (NanoBRET Target Engagement K192 Kinase Selectivity System)
Method: as §1, §2, §3, §4

MYLK2 = molecular target: T17, MYLK2 (Homo sapiens, UniProt Q9H1R3); settings: HEK293
T17 construct: purchased Promega (NanoBRET Target Engagement K192 Kinase Selectivity System)
Method: as §1, §2, §3, §4

MYLK4 = molecular target: T18, MYLK4 (Homo sapiens, UniProt Q86YV6); settings: HEK293
T18 construct: purchased Promega (NanoBRET Target Engagement K192 Kinase Selectivity System)
Method: as §1, §2, §3, §4

NEK4 = molecular target: T19, NEK4 (Homo sapiens, UniProt P51957); settings: HEK293
T19 construct: purchased Promega (NanoBRET Target Engagement K192 Kinase Selectivity System)
Method: as §1, §2, §3, §4

NTRK1v1 = molecular target: T20, NTRK1v1 (Homo sapiens, UniProt P04629); settings: HEK293
T20 construct: purchased Promega (NanoBRET Target Engagement K192 Kinase Selectivity System)
Method: as §1, §2, §3, §4

PAK4 = molecular target: T21, PAK4 (Homo sapiens, UniProt O96013); settings: HEK293
T21 construct: purchased Promega (NanoBRET Target Engagement K192 Kinase Selectivity System)
Method: as §1, §2, §3, §4

PKMYT1 = molecular target: T22, PKMYT1 (Homo sapiens, UniProt Q99640); settings: HEK293
T22 construct: purchased Promega (NanoBRET Target Engagement K192 Kinase Selectivity System)
Method: as §1, §2, §3, §4

PTK2B = molecular target: T23, PTK2B (Homo sapiens, UniProt Q14289); settings: HEK293
T23 construct: purchased Promega (NanoBRET Target Engagement K192 Kinase Selectivity System)
Method: as §1, §2, §3, §4

RIOK2 = molecular target: T24, RIOK2 (Homo sapiens, UniProt Q9BVS4); settings: HEK293
T24 construct: purchased Promega (NanoBRET Target Engagement K192 Kinase Selectivity System)
Method: as §1, §2, §3, §4

RPS6KA6 = molecular target: T25, RPS6KA6 (Homo sapiens, UniProt Q9UK32); settings: HEK293
T25 construct: purchased Promega (NanoBRET Target Engagement K192 Kinase Selectivity System)
Method: as §1, §2, §3, §4

STK17B = molecular target: T26, STK17B (Homo sapiens, UniProt O94768); settings: HEK293
T26 construct: purchased Promega (NanoBRET Target Engagement K192 Kinase Selectivity System)
Method: as §1, §2, §3, §4

STK33 = molecular target: T27, STK33 (Homo sapiens, UniProt Q9BYT3); settings: HEK293
T27 construct: purchased Promega (NanoBRET Target Engagement K192 Kinase Selectivity System)
Method: as §1, §2, §3, §4

TEK = molecular target: T28, TEK (Homo sapiens, UniProt Q02763); settings: HEK293
T28 construct: purchased Promega (NanoBRET Target Engagement K192 Kinase Selectivity System)
Method: as §1, §2, §3, §4

T6 sequence (P19784 whole entry): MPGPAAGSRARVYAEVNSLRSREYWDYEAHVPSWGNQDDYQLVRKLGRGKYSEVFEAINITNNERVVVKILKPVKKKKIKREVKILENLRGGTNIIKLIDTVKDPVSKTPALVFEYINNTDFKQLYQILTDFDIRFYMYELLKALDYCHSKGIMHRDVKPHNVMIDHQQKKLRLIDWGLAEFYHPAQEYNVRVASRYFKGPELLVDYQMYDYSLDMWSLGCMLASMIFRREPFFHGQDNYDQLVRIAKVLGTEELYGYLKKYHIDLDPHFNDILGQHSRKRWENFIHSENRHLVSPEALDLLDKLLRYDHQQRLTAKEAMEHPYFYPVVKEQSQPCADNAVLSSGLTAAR
T10 sequence (P06241 whole entry): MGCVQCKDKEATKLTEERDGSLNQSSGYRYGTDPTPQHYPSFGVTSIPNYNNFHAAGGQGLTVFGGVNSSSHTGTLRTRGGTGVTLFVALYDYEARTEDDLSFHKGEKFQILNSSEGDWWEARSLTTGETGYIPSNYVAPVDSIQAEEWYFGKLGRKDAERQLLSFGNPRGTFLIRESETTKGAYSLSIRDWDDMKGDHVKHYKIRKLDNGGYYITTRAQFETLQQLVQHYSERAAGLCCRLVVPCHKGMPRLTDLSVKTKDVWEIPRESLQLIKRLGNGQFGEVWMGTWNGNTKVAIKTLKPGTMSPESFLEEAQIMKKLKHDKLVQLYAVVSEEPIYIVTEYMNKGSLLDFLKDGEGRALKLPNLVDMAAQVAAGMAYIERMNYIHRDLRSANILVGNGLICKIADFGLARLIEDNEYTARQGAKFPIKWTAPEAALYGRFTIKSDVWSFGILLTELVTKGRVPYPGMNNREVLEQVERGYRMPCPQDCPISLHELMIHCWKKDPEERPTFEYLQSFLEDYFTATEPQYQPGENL
T4 sequence (Q00534 whole entry): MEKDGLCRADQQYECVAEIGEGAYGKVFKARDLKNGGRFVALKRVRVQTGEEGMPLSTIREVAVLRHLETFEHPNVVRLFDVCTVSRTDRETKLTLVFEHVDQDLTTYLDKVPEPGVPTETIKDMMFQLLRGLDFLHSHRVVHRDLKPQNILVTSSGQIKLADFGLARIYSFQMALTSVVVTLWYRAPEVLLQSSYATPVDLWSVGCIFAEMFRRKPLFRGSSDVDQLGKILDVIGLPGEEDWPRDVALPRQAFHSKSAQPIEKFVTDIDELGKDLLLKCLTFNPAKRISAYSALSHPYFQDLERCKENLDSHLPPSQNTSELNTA
T4 sequence (P24385 whole entry partner): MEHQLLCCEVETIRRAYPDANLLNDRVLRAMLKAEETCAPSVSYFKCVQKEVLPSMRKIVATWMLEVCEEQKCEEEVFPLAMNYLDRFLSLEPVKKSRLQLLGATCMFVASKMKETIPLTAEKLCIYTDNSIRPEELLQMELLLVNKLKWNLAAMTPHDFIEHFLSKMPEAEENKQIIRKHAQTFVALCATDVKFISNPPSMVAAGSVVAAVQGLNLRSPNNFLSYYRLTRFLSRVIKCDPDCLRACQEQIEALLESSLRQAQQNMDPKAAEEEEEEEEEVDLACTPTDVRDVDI
T25 sequence (Q9UK32 whole entry): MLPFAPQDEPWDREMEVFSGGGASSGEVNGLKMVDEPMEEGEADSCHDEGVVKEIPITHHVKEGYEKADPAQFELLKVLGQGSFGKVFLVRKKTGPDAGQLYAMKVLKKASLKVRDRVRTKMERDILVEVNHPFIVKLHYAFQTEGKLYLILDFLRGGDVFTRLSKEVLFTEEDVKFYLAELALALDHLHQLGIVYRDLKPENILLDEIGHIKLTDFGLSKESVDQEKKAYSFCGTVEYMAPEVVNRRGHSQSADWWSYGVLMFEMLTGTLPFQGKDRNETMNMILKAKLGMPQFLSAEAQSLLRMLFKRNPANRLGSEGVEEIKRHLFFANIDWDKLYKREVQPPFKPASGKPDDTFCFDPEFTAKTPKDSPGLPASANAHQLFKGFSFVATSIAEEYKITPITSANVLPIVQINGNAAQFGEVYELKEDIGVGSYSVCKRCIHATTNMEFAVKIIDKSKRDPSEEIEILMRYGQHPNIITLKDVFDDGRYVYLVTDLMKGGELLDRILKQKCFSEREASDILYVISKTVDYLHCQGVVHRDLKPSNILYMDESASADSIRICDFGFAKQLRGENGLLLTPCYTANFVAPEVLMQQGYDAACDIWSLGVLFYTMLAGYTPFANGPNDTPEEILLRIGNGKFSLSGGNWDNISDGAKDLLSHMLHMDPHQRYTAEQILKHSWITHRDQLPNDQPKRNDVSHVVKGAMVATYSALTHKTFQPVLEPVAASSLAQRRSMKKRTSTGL
T12 sequence (P08069 31-1367): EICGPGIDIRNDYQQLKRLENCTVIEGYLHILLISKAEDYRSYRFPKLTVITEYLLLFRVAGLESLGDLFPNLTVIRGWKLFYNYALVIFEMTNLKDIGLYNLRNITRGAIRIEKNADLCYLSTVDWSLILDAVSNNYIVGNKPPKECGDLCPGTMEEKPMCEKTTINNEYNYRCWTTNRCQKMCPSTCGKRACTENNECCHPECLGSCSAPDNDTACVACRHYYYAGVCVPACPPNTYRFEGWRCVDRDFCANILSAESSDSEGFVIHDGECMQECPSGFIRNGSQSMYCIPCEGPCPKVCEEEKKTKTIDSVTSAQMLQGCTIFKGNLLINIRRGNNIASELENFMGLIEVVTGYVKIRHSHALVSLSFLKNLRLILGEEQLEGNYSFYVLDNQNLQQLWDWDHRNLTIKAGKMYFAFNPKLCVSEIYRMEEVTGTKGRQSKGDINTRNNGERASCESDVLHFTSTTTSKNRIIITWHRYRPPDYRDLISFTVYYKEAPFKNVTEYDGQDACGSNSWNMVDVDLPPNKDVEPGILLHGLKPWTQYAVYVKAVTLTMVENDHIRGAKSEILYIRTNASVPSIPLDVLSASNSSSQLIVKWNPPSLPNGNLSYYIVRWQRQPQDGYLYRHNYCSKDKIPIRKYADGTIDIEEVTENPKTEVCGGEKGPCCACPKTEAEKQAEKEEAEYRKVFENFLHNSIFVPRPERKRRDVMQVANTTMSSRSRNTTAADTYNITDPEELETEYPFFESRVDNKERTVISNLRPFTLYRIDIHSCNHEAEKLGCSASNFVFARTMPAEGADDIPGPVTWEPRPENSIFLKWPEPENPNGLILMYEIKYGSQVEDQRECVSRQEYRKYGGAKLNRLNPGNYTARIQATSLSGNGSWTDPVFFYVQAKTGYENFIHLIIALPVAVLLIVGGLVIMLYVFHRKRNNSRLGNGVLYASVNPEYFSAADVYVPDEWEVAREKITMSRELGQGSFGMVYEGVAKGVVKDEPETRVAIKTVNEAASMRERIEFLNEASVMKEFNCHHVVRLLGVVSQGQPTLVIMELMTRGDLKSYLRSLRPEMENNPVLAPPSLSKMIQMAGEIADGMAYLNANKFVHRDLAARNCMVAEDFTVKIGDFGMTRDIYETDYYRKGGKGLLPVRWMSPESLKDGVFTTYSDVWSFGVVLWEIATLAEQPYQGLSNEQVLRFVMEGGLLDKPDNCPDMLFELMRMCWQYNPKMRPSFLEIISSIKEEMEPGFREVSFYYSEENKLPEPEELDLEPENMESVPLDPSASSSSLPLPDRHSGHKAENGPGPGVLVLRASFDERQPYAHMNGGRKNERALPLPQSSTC
T7 sequence (Q9C098 whole entry): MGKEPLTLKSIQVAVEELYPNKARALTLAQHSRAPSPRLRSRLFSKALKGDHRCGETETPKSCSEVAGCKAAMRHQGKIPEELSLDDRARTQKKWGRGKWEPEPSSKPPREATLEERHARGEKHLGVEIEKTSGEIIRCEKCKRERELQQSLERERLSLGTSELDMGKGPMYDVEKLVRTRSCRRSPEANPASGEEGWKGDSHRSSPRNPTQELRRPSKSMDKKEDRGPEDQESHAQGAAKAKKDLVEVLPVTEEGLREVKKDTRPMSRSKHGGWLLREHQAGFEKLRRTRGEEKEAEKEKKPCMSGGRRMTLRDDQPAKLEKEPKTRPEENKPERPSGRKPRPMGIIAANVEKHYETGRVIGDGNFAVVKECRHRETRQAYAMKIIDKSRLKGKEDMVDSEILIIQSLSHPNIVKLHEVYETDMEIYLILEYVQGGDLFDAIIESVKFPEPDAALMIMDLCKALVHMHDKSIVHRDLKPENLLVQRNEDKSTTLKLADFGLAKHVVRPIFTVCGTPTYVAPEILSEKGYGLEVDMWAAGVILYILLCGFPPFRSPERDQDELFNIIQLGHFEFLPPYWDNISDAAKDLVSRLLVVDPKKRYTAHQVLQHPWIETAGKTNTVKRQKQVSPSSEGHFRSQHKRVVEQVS
T13 sequence (Q08881 whole entry): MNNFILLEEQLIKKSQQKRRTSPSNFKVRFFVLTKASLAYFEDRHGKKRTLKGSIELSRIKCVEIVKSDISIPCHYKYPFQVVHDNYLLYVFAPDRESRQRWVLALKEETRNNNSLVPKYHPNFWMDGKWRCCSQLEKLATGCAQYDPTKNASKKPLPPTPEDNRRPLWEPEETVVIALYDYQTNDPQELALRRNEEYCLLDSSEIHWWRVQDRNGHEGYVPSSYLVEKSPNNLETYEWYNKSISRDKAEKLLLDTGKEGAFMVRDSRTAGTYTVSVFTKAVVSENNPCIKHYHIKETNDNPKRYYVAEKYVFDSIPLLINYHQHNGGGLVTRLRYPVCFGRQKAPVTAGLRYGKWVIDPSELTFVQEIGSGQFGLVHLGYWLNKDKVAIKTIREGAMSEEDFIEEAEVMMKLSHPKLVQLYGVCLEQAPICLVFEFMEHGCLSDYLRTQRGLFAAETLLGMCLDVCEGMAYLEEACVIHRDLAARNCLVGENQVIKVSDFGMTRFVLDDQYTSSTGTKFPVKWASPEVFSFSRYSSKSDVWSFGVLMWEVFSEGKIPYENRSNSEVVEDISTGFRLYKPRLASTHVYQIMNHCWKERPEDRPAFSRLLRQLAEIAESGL

Which results are given for `CCC(=O)Nc1cc(Nc2cc(NC3CC3)n3ncc(C#N)c3n2)c(F)cc1N1CCC[C@H](NC)C1` [Compound 2, (S)-N-(5-((3-cyano-7-(cyclopropylamino)pyrazolo[1,5-a]pyrimidin-5-yl)amino)-4-fluoro-2-(3-(methylamino)piperidin-1-yl)phenyl)propionamide]?
receptor occupancy at 10 µM (AURKC): 4.5%; receptor occupancy at 10 µM (CAMK2A): 12.4%; receptor occupancy at 10 µM (CDK10 + L2): 13.6%; receptor occupancy at 10 µM (CDK6 + D1): 11.9%; receptor occupancy at 10 µM (CDKL1): 1.5%; % occupancy at 10 μM (CSNK2A2; CSNK2A2, HEK293): 97%; receptor occupancy at 10 µM (CSNK2A2; HEK293, CSNK2A2): 96.9%; receptor occupancy at 10 µM (DCLK3): 44.7%; receptor occupancy at 10 µM (EPHA4): 7.8%; receptor occupancy at 10 µM (FLT3): -13.5%; receptor occupancy at 10 µM (FYN): 18.1%; receptor occupancy at 10 µM (HIPK4): 39.9%; receptor occupancy at 10 µM (IGF1R): -2.6%; receptor occupancy at 10 µM (ITK): 11.9%; receptor occupancy at 10 µM (MAP3K4): 4.9%; receptor occupancy at 10 µM (MAPK14): 10.4%; receptor occupancy at 10 µM (MET): 12.3%; receptor occupancy at 10 µM (MYLK2): 13.1%; receptor occupancy at 10 µM (MYLK4): 38.5%; receptor occupancy at 10 µM (NEK4): 7.8%; receptor occupancy at 10 µM (NTRK1v1): 4.6%; receptor occupancy at 10 µM (PAK4): 4.5%; receptor occupancy at 10 µM (PKMYT1): 5.5%; receptor occupancy at 10 µM (PTK2B): -1.6%; receptor occupancy at 10 µM (RIOK2): -1.8%; receptor occupancy at 10 µM (RPS6KA6): 10.6%; receptor occupancy at 10 µM (STK17B): 45.5%; receptor occupancy at 10 µM (STK33): 26%; receptor occupancy at 10 µM (TEK): 5.2%
